For one data set, the system named is HIV. The conditions noted are these: cited from earlier work.
For data set [1] the following is noted: 50 mg/kg CAB LA, 200 mg/kg RPV intramuscularly once a month; cited from earlier work.
For data set [2] the following is noted: rhesus monkey, in vivo.

Take `C[C@H]1CO[C@@H]2Cn3cc(C(=O)NCc4ccc(F)cc4F)c(=O)c(O)c3C(=O)N12` [CAB, cabotegravir]: the “Protein-adjusted concentration required for 90% viral inhibition” value with HIV was 0.166 µg/mL. Moreover, the “Plasma concentration relative to protein-adjusted concentration required for 90% viral inhibition” value in data set [1] is listed as “well above”. In addition, the “Time after the last dose over which plasma concentration declined to undetectable levels (remained detected)” value in data set [2] was 4-7 months.
With `Cc1cc(/C=C/C#N)cc(C)c1Nc1ccnc(Nc2ccc(C#N)cc2)n1` [RPV, rilpivirine], the “Plasma concentration relative to protein-adjusted concentration required for 90% viral inhibition” value in data set [1] was “well above”. The “Time after the last dose over which plasma concentration declined to undetectable levels (remained detected)” value in data set [2] is on record as 4-7 months.

These data come from US12616692B2, “Method of achieving HIV viral remission using long-acting antiretroviral agents” (ViiV Healthcare Company, priority 2020, dated 2026).
